Source: patent US11512079B2, “Heterocycle substituted pyridine derivative antifungal agents” (Amplyx Pharmaceuticals, Inc., priority 2017, dated 2022)
Converted amounts (≈) assume the structure as drawn.

Tests used:
Format in all cases: cell-based
Candida albicans 90028 = assay: In vitro antifungal assay (Example IX), microdilution broth, MIC; conditions: minimum inhibitory concentration (≥50% inhibition), 35° C., 40-48 h, RPMI1640
Procedure, shortened: (§1)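 CLSI broth microdilution in RPMI1640 with 2.5×10^3 cells/mL and final compound concentrations of 2-0.0019 μg/mL (1% DMSO). C. albicans 90028 plates were incubated at 35° C. for 40-48 h and C. neoformans H99 for 72 h. MIC was read as minimum inhibitory concentration, verified at 600 nm.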

[1] = system: Cryptococcus neoformans H99; assay: as above; conditions: minimum inhibitory concentration (≥50% inhibition), 35° C., 72 h, RPMI1640
Procedure, shortened: as §1

[2] = system: Aspergillus fumigatus MYA3626; assay: In vitro antifungal assay (Example IX), microdilution broth, MEC; conditions: minimum effective concentration (shortening of hyphae), 35° C., 40-48 h, RPMI1640
Procedure, shortened: (§2)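 Spore suspensions of A. fumigatus and R. pusillus adjusted to 1-2×10^4 spores/mL in RPMI1640 and exposed to compound dilutions prepared in DMSO, by broth microdilution. MEC taken as the lowest concentration shortening hyphae versus DMSO control wells, read as for echinocandins.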

[3] = system: Rhizomucor pusillus 46342; assay: as above; conditions: minimum effective concentration (shortening of hyphae), 35° C., 40-48 h, RPMI1640
Procedure, shortened: as §2

Cryptococcus gattii = assay: In vitro antifungal assay (Example IX), microdilution broth, MIC; conditions: minimum inhibitory concentration (≥50% inhibition), 35° C., 72 h (Cryptococcus), RPMI1640
Procedure: Preparation of Fungal Suspension. C. albicans 90028 and C. neoformans H99 strains were streaked from frozen stocks at −80° C. onto Sabouraud Dextrose Agar (SDA) plates. These were allowed to grow for 24 h (C. albicans) and 48 h (C. neoformans) at 35° C. before using them in the assay. 5-6 individual colonies were picked and diluted into sterile water to obtain a fungal suspension. The cell density of the suspension was determined and the culture diluted with RPMI1640 medium to obtain a fungal suspension of 2.5×10^3 cells/mL. The suspension was used in the MIC measurement as described below.
Preparation of Compound Stocks and Intermediate Dilutions: The compounds were weighed and DMSO was added to prepare a 10 mg/mL stock. The solutions were mixed by vortexing and sonication at 37° C. for 5-10 mins. The resulting solutions were sterile filtered using a PTFE filter, and aliquoted (12 μL or as needed) and stored at −20° C. Intermediate compound dilutions were prepared in sterile polypropylene tubes in 100% DMSO. The compound stock solution was first diluted in DMSO to obtain a concentration of […] to 0.19 μg/mL.
MIC/MEC Measurement: 99 μL 1 of the fungal suspension in RPMI1640 prepared as above was added to each well of a 96-well round bottom assay plate. 1 μL of the intermediate compound dilutions (200-0.19 μg/mL) were added to wells of the plate. This led to a 100-fold dilution of the intermediate dilutions resulting in a final compound concentration of 2-0.0019 μg/mL in the plate. 1 μL of DMSO was added to “No drug” control wells. The solutions were mixed by shaking on a plate shaker for 10 mins and plates incubated at 35° C. for 40-48 h (C. albicans, A. fumigatus, R. pusillus) and 72 h (Cryptococcus). […] This was validated by thorough mixing and reading at 600 nm on a microplate reader. The minimum concentration that led to shortening of hyphae as compared to hyphal growth in DMSO control wells was determined as the minimum effective concentration (MEC) for A. fumigatus and R. pusillus (as read for echinocandins). The use of the MIC and MEC endpoints against yeasts and molds, respectively has been described by Pfaller M A, Duncanson F, Messer S A, Moet G J, Jones R N, Castanheira M. Antimicrob Agents Chemother. 2011. 55(11):5155-8. In vitro activity of a novel broad-spectrum antifungal, E1210, tested against Aspergillus spp. determined by CLSI and EUCAST broth microdilution methods. Results are shown in Table 2, and the letters indicate the following ranges in μg/mL: […]

Row | SMILES | MIC (Candida albicans 90028) [µg/mL] | MIC [1] [µg/mL] | MIC (Cryptococcus gattii) [µg/mL] | minimal effective concentration [2] [µg/mL] | minimal effective concentration [3] [µg/mL]
1 | Nc1ncccc1-c1cc(Cc2ccnc(OCc3ccccc3F)c2)no1 [Example 149, 3-(3-((2-((2-fluorobenzyl)oxy)pyridin-4-yl)methyl)isoxazol-5-yl)pyridin-2-amine] | 0.01 to 0.1 (≈ 0.0266 to 0.266 µM) | 0.01 to 0.1 (≈ 0.0266 to 0.266 µM) | 0.1 to 1 (≈ 0.266 to 2.66 µM) | 0.01 to 0.1 | > 1
2 | Nc1ncccc1-c1cc(Cc2ccnc(OCC3CC3)c2)no1 [Example 150, 3-(3-((2-(cyclopropylmethoxy)pyridin-4-yl)methyl)isoxazol-5-yl)pyridin-2-amine] | 0.1 to 1 (≈ 0.31 to 3.1 µM) | 0.1 to 1 (≈ 0.31 to 3.1 µM) | 0.1 to 1 (≈ 0.31 to 3.1 µM) | 0.1 to 1 | > 1
3 | Nc1ncccc1-c1cc(Cc2ccc(OCc3ccnc(F)c3)nc2)no1 [Example 154, 3-(3-((6-((2-fluoropyridin-4-yl)methoxy)pyridin-3-yl)methyl)isoxazol-5-yl)pyridin-2-amine] | 0.01 to 0.1 (≈ 0.0265 to 0.265 µM) | 0.01 to 0.1 (≈ 0.0265 to 0.265 µM) | 0.01 to 0.1 (≈ 0.0265 to 0.265 µM) | 0.01 to 0.1 | 0.1 to 1
4 | Nc1ncccc1-c1cc(Cc2ccc(OCCn3cccn3)nc2)no1 [Example 156, 3-(3-((6-(2-(1H-pyrazol-1-yl)ethoxy)pyridin-3-yl)methyl)isoxazol-5-yl)pyridin-2-amine] | 0.1 to 1 (≈ 0.276 to 2.76 µM) | 0.1 to 1 (≈ 0.276 to 2.76 µM) | > 1 | > 1 | > 1
5 | C#CCOc1ccc(Cc2cc(-c3cccnc3N)on2)cn1 [Example 157, 3-(3-((6-(prop-2-yn-1-yloxy)pyridin-3-yl)methyl)isoxazol-5-yl)pyridin-2-amine] | > 1 | 0.1 to 1 (≈ 0.326 to 3.26 µM) | 0.1 to 1 (≈ 0.326 to 3.26 µM) | 0.1 to 1 | 0.1 to 1

Further lines, with some results ahead:

Row | MIC (Candida albicans 90028) [µg/mL] | MIC [1] [µg/mL] | MIC (Cryptococcus gattii) [µg/mL] | SMILES | minimal effective concentration [2] [µg/mL] | minimal effective concentration [3] [µg/mL]
6 | 0.1 to 1 (≈ 0.276 to 2.76 µM) | 0.1 to 1 (≈ 0.276 to 2.76 µM) | 0.1 to 1 (≈ 0.276 to 2.76 µM) | Nc1ncccc1-c1cc(Cc2ccc(Oc3ccc(F)cc3)nc2)no1 [Example 160, 3-(3-((6-(4-fluorophenoxy)pyridin-3-yl)methyl)isoxazol-5-yl)pyridin-2-amine] | 0.01 to 0.1 | 0.1 to 1
7 | 0.01 to 0.1 (≈ 0.0264 to 0.264 µM) | 0.01 to 0.1 (≈ 0.0264 to 0.264 µM) | 0.01 to 0.1 (≈ 0.0264 to 0.264 µM) | Nc1ncccc1-c1cc(Cc2ccc(Oc3cccc(Cl)c3)nc2)no1 [Example 161, 3-(3-((6-(3-chlorophenoxy)pyridin-3-yl)methyl)isoxazol-5-yl)pyridin-2-amine] | 0.01 to 0.1 | 0.1 to 1
8 | 0.1 to 1 (≈ 0.257 to 2.57 µM) | 0.01 to 0.1 (≈ 0.0257 to 0.257 µM) | 0.01 to 0.1 (≈ 0.0257 to 0.257 µM) | COc1cc(COc2ccc(Cc3cc(-c4cccnc4N)on3)cn2)ccn1 [Example 165, 3-(3-((6-((2-methoxypyridin-4-yl)methoxy)pyridin-3-yl)methyl)isoxazol-5-yl)pyridin-2-amine] | 0.01 to 0.1 | 0.1 to 1
9 | 0.01 to 0.1 (≈ 0.0266 to 0.266 µM) | 0.1 to 1 (≈ 0.266 to 2.66 µM) | 0.01 to 0.1 (≈ 0.0266 to 0.266 µM) | Nc1ncccc1-c1cc(Cc2ccc(COc3ccccc3F)cc2)no1 [Example 168, 3-(3-(4-((2-fluorophenoxy)methyl)benzyl)isoxazol-5-yl)pyridin-2-amine] | 0.01 to 0.1 | 0.1 to 1
10 | 0.01 to 0.1 (≈ 0.0266 to 0.266 µM) | 0.01 to 0.1 (≈ 0.0266 to 0.266 µM) | 0.01 to 0.1 (≈ 0.0266 to 0.266 µM) | Nc1ncccc1-c1cc(Cc2ccc(COc3cccc(F)c3)cc2)no1 [Example 169, 3-(3-(4-((3-fluorophenoxy)methyl)benzyl)isoxazol-5-yl)pyridin-2-amine] | 0.01 to 0.1 | 0.1 to 1
11 | 0.01 to 0.1 (≈ 0.0302 to 0.302 µM) | 0.1 to 1 (≈ 0.302 to 3.02 µM) | 0.01 to 0.1 (≈ 0.0302 to 0.302 µM) | Nc1ncccc1-c1cc(Cc2ccc(Cn3cccn3)cc2)no1 [compound 1, 3-(3-(4-((1H-pyrazol-1-yl)methyl)benzyl)isoxazol-5-yl)pyridin-2-amine] | 0.1 to 1 | > 1
